Series [1] can be described thus: Inherent colour of the substance. The class given is physicochemical. From the text: The weak inherent colour is, for example, a major advantage if an inherent colour of the ingredients is undesired in the products for aesthetic reasons.
Series [2] can be described thus: UV absorption properties (absorption maximum, shoulder, absorption coefficient). The class given is physicochemical. From the text: Tiliroside absorbs in the UV-B region, i.e. in the wavelength range between 290 and 320 nm, with an absorption maximum at λmax=316 nm, and additionally in the UV-A region, i.e. in the wavelength range between 320 and 400 nm, with an absorption shoulder at λsh=349 nm. The absorption coefficient ε at λmax=316 nm is ε=23260 and at λsh=349 nm is ε=13500.
The absorption coefficient at this wavelength is 23420.

Series [3] is classed as physicochemical. An excerpt:
The invention furthermore relates to the stabilisation of UV filters. A known and effective class of light-protection filter substances is formed by the dibenzoylmethane derivatives. However, it is disadvantageous that these substances are decomposed very easily by UV light and their protective properties are thus lost. An example of a commercially available light-protection filter from this class of compounds which may be mentioned is 4-(tert-butyl)-4′-methoxydibenzoylmethane, which has the structure shown below. [drawing 22]
Tiliroside can be used for stabilisation here as the pure substance or in the form of a plant extract. In a preferred embodiment, tiliroside is used in the form of a plant extract, a purified plant extract or in the form of the pure substance prepared from the plant extract.

On to `O=C(C=Cc1ccc(O)cc1)OC[C@H]1O[C@@H](Oc2c(-c3ccc(O)cc3)oc3cc(O)cc(O)c3c2=O)[C@H](O)[C@@H](O)[C@@H]1O` [Tiliroside, kaempferol 3-(6″-p-coumarylglucoside)], for which, in series [1], the inherent colour result is given as “only a weak inherent colour”. Also, the “absorption shoulder λsh” value in series [2] (UV-A region (320 to 400 nm)) came to 349 nm. For the same molecule, the “absorption in the UV-A region (in words)” value in series [2] (UV-A region, tiliroside compared with Eusolex 6300) is listed as “significantly better absorption properties in the UVA region”. Besides, the “absorption maximum λmax” value in series [2] (UV-B region) stood at 316 nm. Also, the “absorption coefficient ε at λmax” value in series [2] (at the absorption maximum in the UV-B region (tiliroside 316 nm, Eusolex 6300 300 nm)) is recorded as 23260. The “absorption coefficient ε at λsh” value in series [2] (at the shoulder λsh=349 nm, UV-A region) came out at 13500. In series [3], the “stabilising action for dibenzoylmethanes” value was “particularly high stabilising action”.

The record behind these values is patent US20040081675A1, “Cosmetic formulations containing flavonoid derivatives” (priority 2001, published 2004).
